# Measured values: patent EP4745137A1 (Gluetacs Therapeutics (Shanghai) Co., Ltd., priority 2023, dated 2025)
# Key:
# [1] = biological target: T1, WEE1 (Homo sapiens, UniProt P30291+Q96SW2); assay: Western-blot assay of substrate protein degradation in hPBMCs, WEE1; assay type: cell-based; settings: 24 hours of compound treatment
# T1 construct: endogenous in cells; host or cells: hPBMCs (Milecell Biotechnologies)
# [2] = biological target: T2, CK1α (Homo sapiens, UniProt P48729+Q96SW2); assay: Western-blot assay of substrate protein degradation in hPBMCs, CK1α; assay type: cell-based; settings: 24 hours of compound treatment
# T2 construct: endogenous in cells; host or cells: hPBMCs (Milecell Biotechnologies)
# T2 sequence (P48729 whole entry): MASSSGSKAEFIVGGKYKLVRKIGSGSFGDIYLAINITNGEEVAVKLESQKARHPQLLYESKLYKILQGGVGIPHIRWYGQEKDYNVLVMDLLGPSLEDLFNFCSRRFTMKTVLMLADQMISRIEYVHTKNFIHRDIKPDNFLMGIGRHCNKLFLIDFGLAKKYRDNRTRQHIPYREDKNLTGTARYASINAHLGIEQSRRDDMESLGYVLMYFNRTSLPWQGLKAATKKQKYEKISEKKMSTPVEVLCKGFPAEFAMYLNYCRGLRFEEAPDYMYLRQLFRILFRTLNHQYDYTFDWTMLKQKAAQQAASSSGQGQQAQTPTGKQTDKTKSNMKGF
# T2 sequence (Q96SW2 whole entry): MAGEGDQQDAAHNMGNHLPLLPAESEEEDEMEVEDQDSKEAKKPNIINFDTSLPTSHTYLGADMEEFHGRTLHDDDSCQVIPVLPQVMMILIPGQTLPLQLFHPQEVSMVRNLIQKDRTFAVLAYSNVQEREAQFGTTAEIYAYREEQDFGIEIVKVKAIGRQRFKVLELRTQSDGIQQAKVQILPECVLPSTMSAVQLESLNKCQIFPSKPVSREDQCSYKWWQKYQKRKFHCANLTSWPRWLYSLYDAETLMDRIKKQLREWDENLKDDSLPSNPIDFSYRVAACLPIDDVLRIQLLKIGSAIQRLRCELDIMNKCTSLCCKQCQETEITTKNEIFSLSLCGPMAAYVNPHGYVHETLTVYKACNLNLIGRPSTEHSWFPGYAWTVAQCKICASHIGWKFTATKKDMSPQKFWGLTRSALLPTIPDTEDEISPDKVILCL
# T2 sequence (Q16531 whole entry partner): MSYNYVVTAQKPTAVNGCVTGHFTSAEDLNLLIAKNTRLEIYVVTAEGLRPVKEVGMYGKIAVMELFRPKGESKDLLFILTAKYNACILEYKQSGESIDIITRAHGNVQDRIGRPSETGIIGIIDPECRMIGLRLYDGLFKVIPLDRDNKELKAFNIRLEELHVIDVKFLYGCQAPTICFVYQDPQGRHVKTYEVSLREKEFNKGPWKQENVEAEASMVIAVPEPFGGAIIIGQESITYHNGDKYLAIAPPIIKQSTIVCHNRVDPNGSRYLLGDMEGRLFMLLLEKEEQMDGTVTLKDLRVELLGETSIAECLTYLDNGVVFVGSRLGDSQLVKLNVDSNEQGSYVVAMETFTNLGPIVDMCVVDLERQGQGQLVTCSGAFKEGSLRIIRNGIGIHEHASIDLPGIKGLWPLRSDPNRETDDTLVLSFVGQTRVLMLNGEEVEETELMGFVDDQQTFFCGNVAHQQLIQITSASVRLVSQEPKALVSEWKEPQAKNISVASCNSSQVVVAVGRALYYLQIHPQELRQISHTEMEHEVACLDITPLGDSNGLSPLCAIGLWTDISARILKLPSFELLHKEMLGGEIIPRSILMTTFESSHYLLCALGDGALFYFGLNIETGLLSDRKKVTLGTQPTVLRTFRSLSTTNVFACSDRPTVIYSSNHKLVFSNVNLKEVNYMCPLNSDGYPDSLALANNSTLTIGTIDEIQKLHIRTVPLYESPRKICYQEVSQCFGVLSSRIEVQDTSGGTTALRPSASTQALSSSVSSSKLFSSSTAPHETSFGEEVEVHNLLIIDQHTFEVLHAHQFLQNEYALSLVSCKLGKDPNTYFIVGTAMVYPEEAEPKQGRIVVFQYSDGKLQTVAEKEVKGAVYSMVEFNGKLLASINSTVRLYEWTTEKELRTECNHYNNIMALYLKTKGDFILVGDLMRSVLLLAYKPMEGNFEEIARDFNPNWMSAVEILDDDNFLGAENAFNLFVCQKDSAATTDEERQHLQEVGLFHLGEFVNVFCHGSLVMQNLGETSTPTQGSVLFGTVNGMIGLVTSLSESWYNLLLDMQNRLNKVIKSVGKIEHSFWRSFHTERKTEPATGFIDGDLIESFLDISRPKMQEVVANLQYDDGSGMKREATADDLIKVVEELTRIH
# [3] = biological target: T3, human Cereblon WT GST-tagged protein (Homo sapiens, UniProt Q96SW2); assay: CRBN-binding affinity by HTRF (CEREBLON BINDING kit); settings: HTRF inhibitory activity, CEREBLON BINDING kit; read-out: HTRF IC50
# T3 construct: purchased CISBIO 64BDCRBNPEH
# T3 sequence (Q96SW2 whole entry): as the sequence (Q96SW2 whole entry) above
# [4] = biological target: T4, IKZF2 (Homo sapiens, UniProt Q96SW2+Q9UKS7); assay: Western-blot assay of substrate protein degradation in hPBMCs, IKZF2; assay type: cell-based; settings: 24 hours of compound treatment
# T4 construct: endogenous in cells; host or cells: hPBMCs (Milecell Biotechnologies)
# [5] = biological target: T5, IKZF3 (Homo sapiens, UniProt Q96SW2+Q9UKT9); assay: Western-blot assay of substrate protein degradation in hPBMCs, IKZF3; assay type: cell-based; settings: 24 hours of compound treatment
# T5 construct: endogenous in cells; host or cells: hPBMCs (Milecell Biotechnologies)
# T5 sequence (Q9UKT9 whole entry): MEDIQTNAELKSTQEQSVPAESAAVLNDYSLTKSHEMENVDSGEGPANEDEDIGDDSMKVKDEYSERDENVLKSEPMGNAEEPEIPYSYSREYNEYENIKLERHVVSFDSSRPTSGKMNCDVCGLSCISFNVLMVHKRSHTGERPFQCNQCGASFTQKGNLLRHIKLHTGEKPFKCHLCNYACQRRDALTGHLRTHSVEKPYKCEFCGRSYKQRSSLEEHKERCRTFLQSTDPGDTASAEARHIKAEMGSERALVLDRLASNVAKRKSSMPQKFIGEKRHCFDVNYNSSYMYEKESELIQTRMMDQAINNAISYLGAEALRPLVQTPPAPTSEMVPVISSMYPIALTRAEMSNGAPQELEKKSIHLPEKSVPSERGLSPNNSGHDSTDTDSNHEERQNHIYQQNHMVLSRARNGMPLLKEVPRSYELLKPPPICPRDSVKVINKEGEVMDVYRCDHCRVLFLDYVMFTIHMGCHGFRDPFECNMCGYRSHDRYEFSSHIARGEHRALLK
# T5 sequence (Q96SW2 whole entry): as the sequence (Q96SW2 whole entry) above
# T5 sequence (Q16531 whole entry partner): as the sequence (Q16531 whole entry partner) above
# [6] = biological target: T6, GSPT1 (Homo sapiens, UniProt P15170+Q96SW2); assay: Western-blot assay of substrate protein degradation in hPBMCs, GSPT1; assay type: cell-based; settings: 24 hours of compound treatment
# T6 construct: endogenous in cells; host or cells: hPBMCs (Milecell Biotechnologies)
# T6 sequence (P15170 whole entry): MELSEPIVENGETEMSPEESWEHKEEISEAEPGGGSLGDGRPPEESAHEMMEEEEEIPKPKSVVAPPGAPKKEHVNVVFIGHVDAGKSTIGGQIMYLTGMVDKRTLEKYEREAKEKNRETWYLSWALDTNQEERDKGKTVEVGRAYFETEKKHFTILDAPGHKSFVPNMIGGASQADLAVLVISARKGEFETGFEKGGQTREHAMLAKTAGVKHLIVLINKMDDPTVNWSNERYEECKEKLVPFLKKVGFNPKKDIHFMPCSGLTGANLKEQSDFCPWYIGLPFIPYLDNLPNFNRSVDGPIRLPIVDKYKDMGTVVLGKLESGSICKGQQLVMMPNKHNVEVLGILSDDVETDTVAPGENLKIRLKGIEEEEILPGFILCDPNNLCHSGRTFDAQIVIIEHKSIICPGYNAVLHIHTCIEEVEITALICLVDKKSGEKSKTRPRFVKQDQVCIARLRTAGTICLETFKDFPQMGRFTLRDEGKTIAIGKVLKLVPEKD
# T6 sequence (Q96SW2 whole entry): as the sequence (Q96SW2 whole entry) above
# T6 sequence (Q16531 whole entry partner): as the sequence (Q16531 whole entry partner) above
# [7] = biological target: T7, IKZF1 (Homo sapiens, UniProt Q13422+Q96SW2); assay: Western-blot assay of substrate protein degradation in hPBMCs, IKZF1; assay type: cell-based; settings: 24 hours of compound treatment
# T7 construct: endogenous in cells; host or cells: hPBMCs (Milecell Biotechnologies)
# T7 sequence (Q13422 whole entry): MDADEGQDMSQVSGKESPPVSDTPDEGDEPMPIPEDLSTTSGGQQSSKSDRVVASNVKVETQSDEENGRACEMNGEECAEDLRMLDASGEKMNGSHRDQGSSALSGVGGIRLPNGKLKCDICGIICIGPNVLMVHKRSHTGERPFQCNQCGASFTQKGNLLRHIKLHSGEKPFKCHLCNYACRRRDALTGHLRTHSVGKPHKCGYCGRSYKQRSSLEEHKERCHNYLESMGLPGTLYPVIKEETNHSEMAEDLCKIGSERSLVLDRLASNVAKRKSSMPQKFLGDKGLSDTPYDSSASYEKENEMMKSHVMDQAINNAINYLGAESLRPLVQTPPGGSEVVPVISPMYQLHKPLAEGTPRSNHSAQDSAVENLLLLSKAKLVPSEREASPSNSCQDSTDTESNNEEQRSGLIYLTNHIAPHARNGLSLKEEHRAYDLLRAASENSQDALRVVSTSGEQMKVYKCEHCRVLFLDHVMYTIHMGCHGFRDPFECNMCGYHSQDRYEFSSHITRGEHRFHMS
# T7 sequence (Q96SW2 whole entry): as the sequence (Q96SW2 whole entry) above
# T7 sequence (Q16531 whole entry partner): as the sequence (Q16531 whole entry partner) above
# [8] = 50 nM and 500 nM tested (concentration behind the class not stated)
# [9] = compounds tested at 50 nM and 500 nM (concentration of the table not stated)
# T1 sequence (P30291 whole entry): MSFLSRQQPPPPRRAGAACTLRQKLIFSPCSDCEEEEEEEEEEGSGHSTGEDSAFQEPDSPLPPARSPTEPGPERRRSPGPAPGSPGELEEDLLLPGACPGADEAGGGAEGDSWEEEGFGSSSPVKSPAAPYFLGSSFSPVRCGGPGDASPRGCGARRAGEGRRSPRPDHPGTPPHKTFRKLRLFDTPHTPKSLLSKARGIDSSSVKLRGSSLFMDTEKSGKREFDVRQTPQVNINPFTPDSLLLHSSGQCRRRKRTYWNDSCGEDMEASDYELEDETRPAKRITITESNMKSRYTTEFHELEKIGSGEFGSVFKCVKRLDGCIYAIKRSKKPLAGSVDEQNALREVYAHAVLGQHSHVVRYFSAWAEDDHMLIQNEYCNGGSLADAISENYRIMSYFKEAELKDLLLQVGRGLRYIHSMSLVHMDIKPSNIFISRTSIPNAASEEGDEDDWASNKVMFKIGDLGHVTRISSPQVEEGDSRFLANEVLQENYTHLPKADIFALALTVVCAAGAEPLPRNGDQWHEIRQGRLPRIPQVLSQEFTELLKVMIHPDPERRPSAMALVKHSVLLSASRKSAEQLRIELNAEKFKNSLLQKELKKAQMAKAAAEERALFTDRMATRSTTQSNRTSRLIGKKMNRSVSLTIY
# T1 sequence (Q96SW2 whole entry): as the sequence (Q96SW2 whole entry) above
# T1 sequence (Q16531 whole entry partner): as the sequence (Q16531 whole entry partner) above
SMILES,"Weel substrate protein remaining % [1, 8]","CK1a substrate protein remaining % [2, 8]",IC50 [3],"IKZF2 substrate protein remaining % [4, 8]","IKZF3 substrate protein remaining % [5, 8]","GSPT1 substrate protein remaining % [6, 8]","IKZF 1 substrate protein remaining % [7, 8]","Weel substrate protein remaining % [1, 9]","CK1a substrate protein remaining % [2, 9]","IKZF2 substrate protein remaining % [4, 9]","IKZF3 substrate protein remaining % [5, 9]","GSPT1 substrate protein remaining % [6, 9]","IKZF 1 substrate protein remaining % [7, 9]"
"O=C1CCC(N2C(=O)c3ccc(CN4CCN(c5ccsc5)CC4)cc3C2=O)C(=O)N1 (stereo not drawn) [GT-06215, 2-(2,6-dioxopiperidin-3-yl)-5-((4-(thiophen-3-yl)piperazin-1-yl)methyl)isoindoline-1,3-dione]",A (0% ≤ substrate protein remaining % ≤ 80%),A (0% ≤ substrate protein remaining % ≤ 80%),500 to 1000 nM,B (80%< substrate protein remaining %≤ 100%),A (0% ≤ substrate protein remaining % ≤ 80%),B (80%< substrate protein remaining %≤ 100%),B (80%< substrate protein remaining %≤ 100%),–,–,–,–,–,–
"O=C1CCC(N2Cc3cc(CN4CCN(c5c(F)c(F)nc(F)c5F)CC4)ccc3C2=O)C(=O)N1 (stereo not drawn) [GT-04499, 3-(1-oxo-5-((4-(perfluoropyridin-4-yl)piperazin-1-yl)methyl)isoindolin-2-yl)piperidine-2,6-dione]",–,–,500 to 1000 nM,–,–,–,–,A (0% ≤ substrate protein remaining % ≤ 80%),A (0% ≤ substrate protein remaining % ≤ 80%),A (0% ≤ substrate protein remaining % ≤ 80%),A (0% ≤ substrate protein remaining % ≤ 80%),A (0% ≤ substrate protein remaining % ≤ 80%),A (0% ≤ substrate protein remaining % ≤ 80%)
"O=C1CCC(N2Cc3cc(CN4CCC(c5ccon5)CC4)ccc3C2=O)C(=O)N1 (stereo not drawn) [GT-04715, 3-(5-((4-(isoxazol-3-yl)piperidin-1-yl)methyl)-1-oxoisoindolin-2-yl)piperidine-2,6-dione]",–,–,1500 to 1900 nM,–,–,–,–,A (0% ≤ substrate protein remaining % ≤ 80%),A (0% ≤ substrate protein remaining % ≤ 80%),A (0% ≤ substrate protein remaining % ≤ 80%),A (0% ≤ substrate protein remaining % ≤ 80%),A (0% ≤ substrate protein remaining % ≤ 80%),A (0% ≤ substrate protein remaining % ≤ 80%)
"O=C1CCC(N2Cc3cc(CN4CCC(c5ncnc6sccc56)CC4)ccc3C2=O)C(=O)N1 (stereo not drawn) [GT-04702, 3-(1-oxo-5-((4-(thieno[2,3-d]pyrimidin-4-yl)piperidin-1-yl)methyl)isoindolin-2-yl)piperidine-2,6-dione]",–,–,500 to 1000 nM,–,–,–,–,B (80%< substrate protein remaining %≤ 100%),B (80%< substrate protein remaining %≤ 100%),A (0% ≤ substrate protein remaining % ≤ 80%),A (0% ≤ substrate protein remaining % ≤ 80%),A (0% ≤ substrate protein remaining % ≤ 80%),A (0% ≤ substrate protein remaining % ≤ 80%)
"O=C1CCC(N2Cc3cc(CN4CCN(c5ccnc(Cl)c5Br)CC4)ccc3C2=O)C(=O)N1 (stereo not drawn) [GT-04616, 3-(5-((4-(3-bromo-2-chloropyridin-4-yl)piperazin-1-yl)methyl)-1-oxoisoindolin-2-yl)piperidine-2,6-dione]",–,–,< 500 nM,–,–,–,–,B (80%< substrate protein remaining %≤ 100%),B (80%< substrate protein remaining %≤ 100%),B (80%< substrate protein remaining %≤ 100%),B (80%< substrate protein remaining %≤ 100%),A (0% ≤ substrate protein remaining % ≤ 80%),B (80%< substrate protein remaining %≤ 100%)
"O=C1CCC(N2Cc3c(CN4CCN(c5cccc(Cl)c5Cl)CC4)cccc3C2=O)C(=O)N1 (stereo not drawn) [GT-04528, 3-(4-((4-(2,3-dichlorophenyl)piperazin-1-yl)methyl)-1-oxoisoindolin-2-yl)piperidine-2,6-dione]",–,–,500 to 1000 nM,–,–,–,–,A (0% ≤ substrate protein remaining % ≤ 80%),B (80%< substrate protein remaining %≤ 100%),B (80%< substrate protein remaining %≤ 100%),B (80%< substrate protein remaining %≤ 100%),B (80%< substrate protein remaining %≤ 100%),B (80%< substrate protein remaining %≤ 100%)
"O=C1CCC(N2Cc3cc(CNC45CC6CC(CC(C6)C4)C5)ccc3C2=O)C(=O)N1 (stereo not drawn) [GT-06913, 3-(5-((((3s,5s,7s)-adamantan-1-yl)amino)methyl)-1-oxoisoindolin-2-yl)piperidine-2,6-dione]",A (0% ≤ substrate protein remaining % ≤ 80%),A (0% ≤ substrate protein remaining % ≤ 80%),1500 to 1900 nM,A (0% ≤ substrate protein remaining % ≤ 80%),B (80%< substrate protein remaining %≤ 100%),A (0% ≤ substrate protein remaining % ≤ 80%),A (0% ≤ substrate protein remaining % ≤ 80%),–,–,–,–,–,–
"Cc1nc(C2=CCN(Cc3ccc4c(c3)C(=O)N(C3CCC(=O)NC3=O)C4=O)CC2)c2c3c(sc2n1)CCC3 (stereo not drawn) [GT-06682, 2-(2,6-dioxopiperidin-3-yl)-5-((4-(2-methyl-6,7-dihydro-5H-cyclopenta[4,5]thieno[2,3-d]pyrimidin-4-yl)-3,6-dihydropyridin-1(2H)-yl)methyl)isoindoline-1,3-dione]",A (0% ≤ substrate protein remaining % ≤ 80%),B (80%< substrate protein remaining %≤ 100%),1500 to 1900 nM,A (0% ≤ substrate protein remaining % ≤ 80%),A (0% ≤ substrate protein remaining % ≤ 80%),A (0% ≤ substrate protein remaining % ≤ 80%),B (80%< substrate protein remaining %≤ 100%),–,–,–,–,–,–
"O=C1CCC(N2C(=O)c3ccc(CN4CCN(c5ncnc6sc7c(c56)CCCC7)CC4)cc3C2=O)C(=O)N1 (stereo not drawn) [GT-06564, 2-(2,6-dioxopiperidin-3-yl)-5-((4-(5,6,7,8-tetrahydrobenzo[4,5]thieno[2,3-d]pyrimidin-4-yl)piperazin-1-yl)methyl)isoindoline-1,3-dione]",A (0% ≤ substrate protein remaining % ≤ 80%),A (0% ≤ substrate protein remaining % ≤ 80%),500 to 1000 nM,A (0% ≤ substrate protein remaining % ≤ 80%),A (0% ≤ substrate protein remaining % ≤ 80%),A (0% ≤ substrate protein remaining % ≤ 80%),A (0% ≤ substrate protein remaining % ≤ 80%),–,–,–,–,–,–
"O=C1CCC(N2Cc3cc(CN4CCN(c5nc(Cl)nc6ccsc56)CC4)ccc3C2=O)C(=O)N1 (stereo not drawn) [GT-04682, 3-(5-((4-(2-chlorothieno[3,2-d]pyrimidin-4-yl)piperazin-1-yl)methyl)-1-oxoisoindolin-2-yl)piperidine-2,6-dione]",–,–,500 to 1000 nM,–,–,–,–,B (80%< substrate protein remaining %≤ 100%),A (0% ≤ substrate protein remaining % ≤ 80%),B (80%< substrate protein remaining %≤ 100%),B (80%< substrate protein remaining %≤ 100%),A (0% ≤ substrate protein remaining % ≤ 80%),B (80%< substrate protein remaining %≤ 100%)
"Cc1ccc(N2CCN(Cc3ccc4c(c3)CN(C3CCC(=O)NC3=O)C4=O)CC2)c(C)c1 (stereo not drawn) [GT-04439, 3-(5-((4-(2,4-dimethylphenyl)piperazin-1-yl)methyl)-1-oxoisoindolin-2-yl)piperidine-2,6-dione]",–,–,1000 to 1500 nM,–,–,–,–,A (0% ≤ substrate protein remaining % ≤ 80%),A (0% ≤ substrate protein remaining % ≤ 80%),A (0% ≤ substrate protein remaining % ≤ 80%),A (0% ≤ substrate protein remaining % ≤ 80%),A (0% ≤ substrate protein remaining % ≤ 80%),A (0% ≤ substrate protein remaining % ≤ 80%)
"O=C1CCC(N2Cc3cc(CN4CCN(c5ncncn5)CC4)ccc3C2=O)C(=O)N1 (stereo not drawn) [GT-04486, 3-(5-((4-(1,3,5-triazin-2-yl)piperazin-1-yl)methyl)-1-oxoisoindolin-2-yl)piperidine-2,6-dione]",–,–,500 to 1000 nM,–,–,–,–,A (0% ≤ substrate protein remaining % ≤ 80%),A (0% ≤ substrate protein remaining % ≤ 80%),A (0% ≤ substrate protein remaining % ≤ 80%),B (80%< substrate protein remaining %≤ 100%),A (0% ≤ substrate protein remaining % ≤ 80%),A (0% ≤ substrate protein remaining % ≤ 80%)
